# According to patent US20100075364A1, “METHOD FOR SELECTING MAMMAL TRANSFORMED CELLS” (FOOD AND DRUG SAFETY CENTER, priority 2008, published 2010):
# Experiments:
# Bhas 42 cells [1] = assay: Bhas 42 cell transformation test with MCA, hydrogen peroxide method with dye and Giemsa staining; format: cell-based, mouse; details: MCA 0.1, 0.3, 1 μg/mL for 3 days; 0.0015% hydrogen peroxide day 21, alamarBlue or WST-8
# Protocol: A basic experiment was carried out as follows. In a Bhas 42 cell transformation test using a 96-well plate (0.1 mL of medium/well), 0.05 mL of a medium containing hydrogen peroxide (in a concentration 3 times higher than the final concentration) was added on the 21st day after cell inoculation. 1 to 24 hours later, 0.05 mL of a medium containing alamarBlue or WST-8 (0.01 mL of dye+0.04 mL of medium) was added.
# Whether or not the transformation of Bhas 42 cells could be quantified with a dye was analyzed using MCA. The cells were inoculated (200 cells/0.05 mL of medium/well), and on the following day, 0.05 mL of a medium containing MCA (0.2, 0.6, and 2 μg/mL: all of which were 2 times higher than the final concentrations that were 0.1, 0.3, and 1 μg/mL, respectively) was added thereto. The cells were treated for 3 days, and a medium containing hydrogen peroxide (0.0045%: 3 times higher than the final concentration that was 0.0015%) was added thereto on the 21st day after cell inoculation. 24 hours later, a dye was added, and measurement was then carried out. Thereafter, 0.02 mL of glutaraldehyde (2.5%: approximately 10 times higher than the final concentration that was 0.25%) was further added, and the resultant cells were then left for 30 minutes or more for fixation. Thereafter, the cells were washed with water and were then subjected to Giemsa staining.
# Bhas 42 cells [2] = assay: Selection of Bhas 42 transformed cells by BP treatment and light irradiation; format: cell-based, mouse; details: BP 20 ng/mL + light irradiation 2 J/cm^2 (UVA), observed 24 hours later
# Protocol: Whether or not transformed cells can be selected using active oxygens other than hydrogen peroxide was analyzed. Since such active oxygens other than hydrogen peroxide are extremely unstable and have a short life time, they cannot be used as reagents. Accordingly, benzo(a)pyrene (BP) for generating superoxide anion radical as a result of light irradiation was utilized. Transformed foci were induced in Bhas 42 cells (by the method of Example 1), and the medium was then exchanged with a phosphate buffered saline (2 mL/well). […] Using a sunlight simulator, light was applied to the cells (300 to 800 nm; UVA irradiation intensity: 5.6 mW/cm^2; irradiation time: 6 minutes; irradiation dose: 2 J/cm^2), and the medium was then exchanged. Twenty-four hours later, the resultant cells were observed.
# [3] = tested on: Hu-MI cells and human cancer cells (A549, FLC-5, HCT 116, MKN28); details: 0.003% final, 24 hours, day 14
# Protocol: Whether or not human transformed cells can also be selected by treatment with hydrogen peroxide was analyzed. […] An experimental system was prepared, such that a large number of Hu-MI cells and a small number of human cancer cells (A549 cells: lung cancer; FLC-5 cells: liver cancer; HCT 116 cells: colon cancer; and MKN28 cells: stomach cancer) were simultaneously inoculated and such that they were co-cultured.
# The Hu-MI cells (10^4 cells/well) and various types of cancer cells (500 cells/well for FLC-5 cells; and 100 cells/well for other cells) were each inoculated on a 6-well plate (2 mL of medium/well). On the 14th day after the inoculation, 0.2 mL of medium containing hydrogen peroxide (0.033%: 11 times higher than the final concentration that was 0.003%) was added thereto, and the cells were then observed 24 hours after the addition of hydrogen peroxide. As a medium, MEM+10% fetal bovine serum was used.
# Bhas 42 cells [4] = details: depending on concentration and treatment time (1 to 24 hours)
# Protocol: 1 to 24 hours later, 0.05 mL of a medium containing alamarBlue or WST-8 (0.01 mL of dye+0.04 mL of medium) was added. Three hours after the addition of the aforementioned medium, a fluorescence level (excitation: 530 nm; measurement: 590 nm) or absorbance (450 nm) was measured (FIG. 2).
# In order to find conditions under which normal cells are killed but transformed cells survive, an experiment was carried out to obtain an appropriate concentration of hydrogen peroxide and an appropriate treatment time.
# Bhas 42 cells [5] = details: 0.0015% final, 24 hours
# Protocol: In order to observe the morphology of a transformed focus and the morphology of normal cells existing around the transformed focus before and after a treatment with hydrogen peroxide, the following experiment was carried out using 3-methylcholanthrene (MCA) as an initiator. […] Thereafter, 0.2 mL of a medium containing hydrogen peroxide (0.0165%: 11 times higher than the final concentration that was 0.0015%) was added, and the transformed focus was then observed 24 hours after the addition of hydrogen peroxide.
# mouse lung tumor cells = details: 0.015% final, 24 hours, lung tumor slices
# Protocol: Whether or not the transformed cells can be selected even in vivo was analyzed. The following experiment was carried out using rasH2 mice (human c-Ha-ras gene-introduced mice; female; 6-week-old). N-ethyl-N-nitrosourea used as an initiator was intraperitoneally administered to each mouse (120 mg/kg/10 mL of physiological saline). From 1 week after the administration of N-ethyl-N-nirosourea, butylhydroxytoluene used as a promoter was orally administered once a week, repeatedly for 7 weeks (400 mg/kg/10 mL of corn oil). Thereafter, the mouse was further bred for 2 weeks. […] The medium was left at rest in a CO2 incubator (5% CO2, 37° C.) for 24 hours, and the sample was then stained with a trypan blue solution (prepared by adding 0.002% trypan blue to phosphate buffered saline) for 10 minutes. It is to be noted that trypan blue is not incorporated into living cells but is incorporated into dead cells, and that it stains the cells blue.
smiles,measurement,setting,value
"Cc1ccc2cc3c(ccc4ccccc43)c3c2c1CC3 [MCA, 3-methylcholanthrene]",transformed foci and fluorescence level or absorbance,Bhas 42 cells [1],increased depending on the dosage
"c1ccc2c(c1)cc1ccc3cccc4ccc2c1c34 [BP, benzo(a)pyrene]",selection of the transformed cells,Bhas 42 cells [2],observed only in the case of a BP treatment+light irradiation group
OO [hydrogen peroxide],fate of Hu-MI cells (considered normal cells),[3],died and were thereby removed
same,"fate of human cancer cells (A549, FLC-5, HCT 116, MKN28)",[3],remained in the state of colonies and survived
same,"effect on normal cells versus transformed focus wells, absorbance of WST-8 as indicator",Bhas 42 cells [4],specifically destroys normal cells
same,morphology of normal cells around the transformed focus after addition of hydrogen peroxide,Bhas 42 cells [5]; day 21,cytoplasm was denatured
same,morphology of the transformed focus after addition of hydrogen peroxide,"Bhas 42 cells [5]; day 21, foci induced by 1 μg/mL MCA",not changed
same,trypan blue staining (dead cells) of tumor and non-tumor portion,mouse lung tumor cells,only the non-tumor portion was stained blue
